Source: PubChem BioAssay (NCI)
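Dose response: 5 concentrations. Exposure: 48 h. Format: 96-well plates. Endpoint: linear interpolation; highest concentration if not reached. GI50 is the concentration that inhibits growth by half. TGI denotes the concentration required for complete inhibition of growth.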

How the values were obtained:
Assay in all cases: growth of human tumour cells (NCI), 48 h
MDA-MB-435 = system: MDA-MB-435
K-562 leukemia = system: K-562 leukemia
A549 NSCLC = system: A549 NSCLC
MDA-MB-231 breast = system: MDA-MB-231 breast
NCI-H226 lung = system: NCI-H226 lung
DU-145 prostate = system: DU-145 prostate
NCI-H23 lung = system: NCI-H23 lung
CAKI-1 renal = system: CAKI-1 renal
SNB-75 CNS = system: SNB-75 CNS
MCF7 breast = system: MCF7 breast
CCRF-CEM leukemia = system: CCRF-CEM leukemia
SN12C renal = system: SN12C renal
SF-268 CNS = system: SF-268 CNS
RXF 393 renal = system: RXF 393 renal
SK-MEL-28 melanoma = system: SK-MEL-28 melanoma
OVCAR-8 ovarian = system: OVCAR-8 ovarian
IGROV1 ovarian = system: IGROV1 ovarian
BT-549 breast = system: BT-549 breast
M14 melanoma = system: M14 melanoma
PC-3 prostate = system: PC-3 prostate
ACHN renal = system: ACHN renal
MALME-3M melanoma = system: MALME-3M melanoma
SK-OV-3 ovarian = system: SK-OV-3 ovarian
A498 renal = system: A498 renal
UO-31 renal = system: UO-31 renal
NCI-H522 lung = system: NCI-H522 lung
SR leukemia = system: SR leukemia
U251 CNS = system: U251 CNS
RPMI-8226 leukemia = system: RPMI-8226 leukemia

Oc1ccc(CSc2nnc(-c3ccncc3)n2-c2ccccc2)c2cccnc12
TGI (MDA-MB-435): > 100 µM | GI50 (K-562 leukemia): 0.363 µM | TGI (K-562 leukemia): > 100 µM | GI50 (A549 NSCLC): 1.75 µM | TGI (A549 NSCLC): > 100 µM | GI50 (MDA-MB-231 breast): 1.26 µM | TGI (MDA-MB-231 breast): > 55.6 µM | GI50 (NCI-H226 lung): 3.49 µM | TGI (NCI-H226 lung): > 100 µM | GI50 (DU-145 prostate): 0.686 µM | TGI (DU-145 prostate): > 100 µM | GI50 (NCI-H23 lung): 0.433 µM | TGI (NCI-H23 lung): > 46.5 µM | GI50 (CAKI-1 renal): 1.61 µM | TGI (CAKI-1 renal): > 100 µM | GI50 (SNB-75 CNS): 0.642 µM | TGI (SNB-75 CNS): 43 µM | GI50 (MCF7 breast): 0.357 µM | TGI (MCF7 breast): > 100 µM | GI50 (CCRF-CEM leukemia): 0.513 µM | TGI (CCRF-CEM leukemia): > 100 µM | GI50 (SN12C renal): 0.385 µM | TGI (SN12C renal): > 100 µM | GI50 (SF-268 CNS): 0.804 µM | TGI (SF-268 CNS): > 100 µM | GI50 (RXF 393 renal): 2.83 µM | TGI (RXF 393 renal): 70.5 µM | GI50 (SK-MEL-28 melanoma): 1.79 µM | TGI (SK-MEL-28 melanoma): > 100 µM | GI50 (OVCAR-8 ovarian): 0.493 µM | TGI (OVCAR-8 ovarian): > 100 µM | GI50 (IGROV1 ovarian): 1.04 µM | TGI (IGROV1 ovarian): > 57 µM | GI50 (BT-549 breast): 0.596 µM | TGI (BT-549 breast): > 63.1 µM | GI50 (M14 melanoma): 0.765 µM | TGI (M14 melanoma): 5.96 µM | GI50 (PC-3 prostate): 0.735 µM | TGI (PC-3 prostate): > 100 µM | GI50 (ACHN renal): 0.794 µM | TGI (ACHN renal): > 28.4 µM | GI50 (MALME-3M melanoma): 1.05 µM | TGI (MALME-3M melanoma): > 81.5 µM | GI50 (SK-OV-3 ovarian): 2.32 µM | TGI (SK-OV-3 ovarian): > 29.4 µM | GI50 (A498 renal): 2.6 µM | TGI (A498 renal): 8.64 µM | GI50 (UO-31 renal): 0.451 µM | TGI (UO-31 renal): 12.8 µM | GI50 (NCI-H522 lung): 0.369 µM | TGI (NCI-H522 lung): > 100 µM | GI50 (SR leukemia): 0.396 µM | TGI (SR leukemia): > 100 µM | GI50 (U251 CNS): 0.422 µM | TGI (U251 CNS): 63.6 µM | GI50 (RPMI-8226 leukemia): 0.391 µM | TGI (RPMI-8226 leukemia): > 100 µM
